In patent US7348347B2, “Substituted 4,5,6,7-tetrahydrobenzthiazol-2-ylamine compounds” (Gruenenthal GmbH, priority 2004, dated 2008):

Legend:
NA transporter = biological target: T1, NA transporter (Rattus norvegicus, UniProt Q63380); experiment: Inhibition of noradrenaline uptake in rat brain synaptosomes; type: biochemical; details: 10 μM, rat synaptosomes (hypothalamus), [3H]-NA; for inhibition at 10 µM: read-out: % Inhibition of NA uptake [10 μM]
T1 construct: from tissue; host or cells: rat brain synaptosomes (P2 fraction) from hypothalamus
T1 sequence (Q63380 1-617): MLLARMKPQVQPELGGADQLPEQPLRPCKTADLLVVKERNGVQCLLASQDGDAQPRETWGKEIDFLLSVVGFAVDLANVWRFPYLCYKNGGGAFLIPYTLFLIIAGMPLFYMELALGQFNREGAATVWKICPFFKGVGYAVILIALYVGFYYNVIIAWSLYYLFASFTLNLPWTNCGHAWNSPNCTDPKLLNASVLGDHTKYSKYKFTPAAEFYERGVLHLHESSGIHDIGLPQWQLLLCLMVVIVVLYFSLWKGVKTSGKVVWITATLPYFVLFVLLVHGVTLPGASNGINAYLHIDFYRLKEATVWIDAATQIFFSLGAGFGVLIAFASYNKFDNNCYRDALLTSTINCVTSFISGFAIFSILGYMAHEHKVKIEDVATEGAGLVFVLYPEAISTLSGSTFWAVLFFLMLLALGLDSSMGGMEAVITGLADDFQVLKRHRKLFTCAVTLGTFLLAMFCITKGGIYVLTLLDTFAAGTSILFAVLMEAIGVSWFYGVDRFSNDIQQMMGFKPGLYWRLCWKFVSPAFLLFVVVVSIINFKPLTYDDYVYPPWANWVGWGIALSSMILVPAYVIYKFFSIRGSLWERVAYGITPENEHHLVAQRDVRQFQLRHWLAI
Method: II. […] For in vitro studies, synaptosomes of rat brain areas are freshly isolated, as described in the article “The isolation of nerve endings from brain” by E. G. Gray and […]. Anatomy 96, pages 79-88, 1962. The relevant literature reference is enclosed herein by reference and is to be regarded as part of the disclosure. […] The homogenate is centrifuged at 4° C. for 10 minutes at 1000 g. […] The respective uptake was measured in a 96 well microtiter plate. The volume was 250 μL and the incubation was carried out at room temperature (ca 20-25° C.) under a blanket of oxygen. […] The 96 samples through were then filtered through a Unifilter GF/B® microtiter plate (Packard) and washed with 200 mL of incubated buffer with the aid of a “Brabdel Cell-Harvester MPXRI 96T”. The Unifilter GF/B plate was dried at 55° C. over a period of 1 h. The plate was then sealed with a back seal® (Packard) and there were then added 35 μL of scintillant fluid per well (Ultima Gold, Packard). Following sealing with a top seal® (Packard) and following adjustment of the equilibrium (approximately over a period of 5 h), the radioactivity is determined in a 1450 Microbeta® (Wallac). […] The amount of protein used in the above determination corresponded to the values known from the literature, such as is described in “Protein measurement with the folin phenol reagent”, Lowry et al., J. Biol. Chem., 193, 265-275, 1951. A detailed description of the method is disclosed in the literature, for example, in […], and B. […] The relevant literature references are incorporated herein by reference and are to be regarded as part of the disclosure.

5-HT uptake = biological target: T2, 5-HT uptake (Rattus norvegicus, UniProt P31652); experiment: Inhibition of 5-HT uptake in rat brain synaptosomes; type: biochemical; details: [3H]-5-HT
T2 construct: from tissue; host or cells: rat brain synaptosomes (P2 fraction) from marrow (medulla) and pons
T2 sequence (P31652 whole entry): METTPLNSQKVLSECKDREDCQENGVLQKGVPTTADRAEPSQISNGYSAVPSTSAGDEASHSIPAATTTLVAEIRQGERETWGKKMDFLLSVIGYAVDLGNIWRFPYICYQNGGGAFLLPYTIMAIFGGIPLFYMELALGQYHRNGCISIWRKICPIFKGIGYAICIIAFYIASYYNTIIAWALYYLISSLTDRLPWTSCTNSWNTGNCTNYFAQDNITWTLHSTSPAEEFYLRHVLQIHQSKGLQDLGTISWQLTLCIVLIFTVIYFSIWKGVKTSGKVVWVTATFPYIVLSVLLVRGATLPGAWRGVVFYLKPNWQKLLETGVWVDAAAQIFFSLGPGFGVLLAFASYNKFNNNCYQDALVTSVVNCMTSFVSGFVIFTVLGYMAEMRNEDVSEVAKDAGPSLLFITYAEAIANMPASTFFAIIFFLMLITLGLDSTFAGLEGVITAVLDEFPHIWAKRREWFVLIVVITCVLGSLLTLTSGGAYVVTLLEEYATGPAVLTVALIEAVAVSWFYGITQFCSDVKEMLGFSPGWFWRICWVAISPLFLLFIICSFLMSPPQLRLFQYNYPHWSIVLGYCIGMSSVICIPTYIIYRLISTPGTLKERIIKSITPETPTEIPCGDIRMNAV
Method: The relevant literature reference is enclosed herein by reference and is to be regarded as part of the disclosure.
The homogenate is centrifuged at 4° C. for 10 minutes at 1000 g. Following subsequent centrifugation at 17,000 g for 55 minutes, the synaptosomes (P2 fraction) are obtained, which are then resuspended in 0.32 M […] (0.5 mL/100 mg of the original weight).
The respective uptake was measured in a 96 well microtiter plate. The volume was 250 μL and the incubation was carried out at room temperature (ca 20-25° C.) under a blanket of oxygen.
The 96 samples through were then filtered through a Unifilter GF/B® microtiter plate (Packard) and washed with 200 mL of incubated buffer with the aid of a “Brabdel Cell-Harvester MPXRI 96T”. The Unifilter GF/B plate was dried at 55° C. over a period of 1 h. The plate was then sealed with a back seal® (Packard) and there were then added 35 μL of scintillant fluid per well (Ultima Gold, Packard).
A detailed description of the method is disclosed in the literature, for example, in M. Ch.

[1] = rat synaptosomes (medulla and pons)

Row | Compound | inhibition at 10 µM (NA transporter) | inhibition at 10 µM (5-HT uptake; [1]) | % Inhibition of NA uptake [10 μM] (NA transporter) | % Inhibition of 5-HT uptake [10 μM] (5-HT uptake; [1]) | % Inhibition of 5-HT uptake [10 μM] (5-HT uptake; rat synaptosomes (and pons))
1 | COc1ccc(C(=O)Nc2nc3c(s2)CCCC3C(=O)NCC2CCN(Cc3c(F)cccc3Cl)C2)cc1 (stereo not shown) [Example 12, 2-(4-Methoxybenzoylamino)-4,5,6,7-tetrahydrobenzthiazol-4-carboxylic acid [1-(2-chloro-6-fluorobenzyl)pyrrolidin-3-yl]methylamide] | 48% | 55% |  |  | 
2 | O=C(Cc1cccs1)Nc1nc2c(s1)CCCC2C(=O)NCCCN1CCOCC1 (stereo not shown) [Example 14] |  |  | 43% | 50% | 
3 | O=C(Nc1nc2c(s1)CCCC2C(=O)N1CCN(Cc2cc3ccccc3o2)CC1)c1ccoc1 (stereo not shown) [Example 17, Furan-3-carboxylic acid[4-(4-benzofuran-2-ylmethylpiperazin-1-carbonyl)-4,5,6,7-tetrahydrobenzthiazol-2-yl]amide] |  |  | 81% | 72% | 
4 | CCCCCC(=O)Nc1nc2c(s1)CCCC2C(=O)NCCCN1CCCCC1C (stereo not shown) [Example 18, 2-Hexanylamino-4,5,6,7-tetrahydrobenzthiazol-4-carboxylic acid[3-(2-methylpiperidin-1-yl)propyl]amide] |  |  | 43% | 57% | 
5 | CCOc1ccccc1C(=O)Nc1nc2c(s1)CCCC2C(=O)N1CCN(CCc2ccccc2)CC1 (stereo not shown) [Example 20, 2-Ethoxy-N-[4-(4-phenethylpiperazin-1-carbonyl)-4,5,6,7-tetrahydrobenzthiazol-2-yl]benzamide] | 77% | 64% |  |  | 
6 | O=C(COc1ccc(F)cc1)Nc1nc2c(s1)CCCC2C(=O)N1CCN(c2ccccc2)CC1 (stereo not shown) [Example 21, 2-(4-Fluorophenoxy)-N-[4-(4-phenylpiperazin-1-carbonyl)-4,5,6,7-tetrahydrobenzthiazol-2-yl]acetamide] | 55% | 47% |  |  | 
7 | CC(C(=O)Nc1nc2c(s1)CCCC2C(=O)NCCC1CCCN1C)c1ccccc1 (stereo not shown) [Example 22, 2-(2-Phenylpropionylamino)-4,5,6,7-tetrahydrobenzthiazol-4-carboxylic acid [2-(1-methylpyrrolidin-2-yl)ethyl]amide] | 60% | 44% |  |  | 
8 | CCCC(=O)Nc1nc2c(s1)CCCC2C(=O)N1CCN(Cc2cc3ccccc3o2)CC1 (stereo not shown) [Example 27, N-[4-(4-Benzofuran-2-ylmethylpiperazin-1-carbonyl)-4,5,6,7-tetrahydrobenzthiazol-2-yl]butyramide] | 47% | 61% |  |  | 
9 | COc1cccc(N2CCN(C(=O)C3CCCc4sc(NC(=O)c5ccccc5)nc43)CC2)c1 (stereo not shown) [Example 28, N-{4-[4-(3-Methoxyphenyl)piperazin-1-carbonyl]-4,5,6,7-tetrahydrobenzthiazol-2-yl}benzamide] | 60% | 48% |  |  | 
10 | CCCC(=O)Nc1nc2c(s1)CCCC2C(=O)NCC1CCN(Cc2ccc(-c3ccccc3)cc2)C1 (stereo not shown) [Example 29, 2-Butyrylamino-4,5,6,7-tetrahydrobenzthiazol-4-carboxylic acid (1-biphenyl-4-ylmethylpyrrolidin-3-yl)methylamide] | 73% | 55% |  |  | 
11 | COc1cc(Br)c(CN2CCC(NC(=O)C3CCCc4sc(NC(=O)C(C)c5ccccc5)nc43)C2)cc1OC (stereo not shown) [Example 33] |  |  | 79% | 63% | 
12 | CCCCCC(=O)Nc1nc2c(s1)CCCC2C(=O)N1CCN(Cc2c(OC)cc(OC)cc2OC)CC1 (stereo not shown) [Example 34, Hexanoic acid{4-[4-(2,4,6-trimethoxybenzyl)piperazin-1-carbonyl]-4,5,6,7-tetrahydrobenzthiazol-2-yl}amide] |  |  | 50% | 63% | 
13 | O=C(Cc1cccs1)Nc1nc2c(s1)CCCC2C(=O)NCCN1CCCCCC1 (stereo not shown) [Example 39, 2-(2-Thiophen-2-ylacetylamino)-4,5,6,7-tetrahydrobenzthiazol-4-carboxylic acid(2-azepan-1-ylethyl)amide] |  |  | 50% | 49% | 
14 | CCOc1ccccc1CN1CCC(CNC(=O)C2CCCc3sc(NC(=O)Cc4cccs4)nc32)C1 (stereo not shown) [Example 40] |  |  | 47% |  | 48%

More lines, main results first:

Row | inhibition at 10 µM (NA transporter) | inhibition at 10 µM (5-HT uptake; [1]) | % Inhibition of NA uptake [10 μM] (NA transporter) | % Inhibition of 5-HT uptake [10 μM] (5-HT uptake; [1]) | Compound | % Inhibition of 5-HT uptake [10 μM] (5-HT uptake; rat synaptosomes (and pons))
15 | 67% | 51% |  |  | O=C(CCc1ccccc1)Nc1nc2c(s1)CCCC2C(=O)NCC1CCN(Cc2cc3ccccc3o2)C1 (stereo not shown) [Example 48, 2-(3-Phenylpropionylamino)-4,5,6,7-tetrahydrobenzthiazol-4-carboxylic acid (1-benzofuran-2-ylmethylpyrrolidin-3-yl)methylamide] | 
16 |  |  | 44% | 51% | CC=CC=CC(=O)Nc1nc2c(s1)CCCC2C(=O)NCC1CCN(Cc2c(Cl)cccc2Cl)C1 (stereo not shown) [Example 49, 2-Hexa-2,4-dienoylamino-4,5,6,7-tetrahydrobenzthiazol-4-carboxylic acid[1-(2,6-dichlorobenzyl)pyrrolidin-3-yl]methylamide] | 
17 | 93% | 72% |  |  | CCOc1ccc(Br)cc1CN1CCC(NC(=O)C2CCCc3sc(NC(=O)c4ccco4)nc32)C1 (stereo not shown) [Example 50, 2-[(Furan-2-carbonyl)amino]-4,5,6,7-tetrahydrobenzthiazol-4-carboxylic acid [1-(5-bromo-2-ethoxybenzyl)pyrrolidin-3-yl]amide] | 
18 | 44% | 54% |  |  | O=C(CCc1ccccc1)Nc1nc2c(s1)CCCC2C(=O)NCC1CCN(Cc2ccc(-c3ccccc3)cc2)C1 (stereo not shown) [Example 55, 2-(3-Phenylpropionylamino)-4,5,6,7-tetrahydrobenzthiazol-4-carboxylic acid (1-biphenyl-4-ylmethylpyrrolidin-3-yl)methylamide] | 
19 |  |  | 45% | 46% | CC=CC=CC(=O)Nc1nc2c(s1)CCCC2C(=O)NCC1CCN(Cc2c(F)cccc2Cl)C1 (stereo not shown) [Example 61, 2-Hexa-2,4-dienoylamino-4,5,6,7-tetrahydrobenzthiazol-4-carboxylic acid[1-(2-chloro-6-fluorobenzyl)pyrrolidin-3-yl]methylamide] | 
20 |  |  | 53% | 48% | O=C(Nc1nc2c(s1)CCCC2C(=O)N1CCN(c2ccccn2)CC1)c1ccoc1 (stereo not shown) [Example 64, Furan-3-carboxylic acid[4-(4-pyridin-2-ylpiperazin-1-carbonyl)-4,5,6,7-tetrahydrobenzthiazol-2-yl]amide] | 
21 |  |  | 42% | 97% | O=C(CC1CCCCC1)Nc1nc2c(s1)CCCC2C(=O)NCC1CCN(Cc2c(Cl)cccc2Cl)C1 (stereo not shown) [Example 67, 2-(2-cyclohexylacetylamino)-4,5,6,7-tetrahydrobenzthiazol-4-carboxylic acid[1-(2,6-dichlorobenzyl)pyrrolidin-3-yl]methylamide] | 
22 |  |  | 90% | 66% | O=C(Nc1nc2c(s1)CCCC2C(=O)N1CCN(CCc2ccccc2)CC1)c1ccoc1 (stereo not shown) [Example 71, Furan-3-carboxylic acid[4-(4-phenethylpiperazin-1-carbonyl)-4,5,6,7-tetrahydrobenzthiazol-2-yl]amide] | 
23 | 51% | 84% |  |  | O=C(CCc1ccccc1)Nc1nc2c(s1)CCCC2C(=O)N1CCN(c2cccc(C(F)(F)F)c2)CC1 (stereo not shown) [Example 72, 3-Phenyl-N-{4-[4-(3-trifluoromethylphenyl)piperazin-1-carbonyl]-4,5,6,7-tetrahydrobenzthiazol-2-yl}propionamide] | 
